According to patent publication US20110135575A1, “METALLOPROTEIN MRI CONTRAST AGENTS AND RELATED METHODS” (Massachusetts Institute of Technology, priority 2007, published 2011):

B1: wild type BM3: wild type cytochrome P450-BM3 from Bacillus megaterium, provided by Frances Arnold's laboratory (protein, UniProt P14779 1-1049, looked up)
Bifunctional cytochrome …: MTIKEMPQPKTFGELKNLPLLNTDKPVQALMKIADELGEIFKFEAPGRVTRYLSSQRLIKEACDESRFDKNLSQALKFVRDFAGDGLFTSWTHEKNWKKAHNILLPSFSQQAMKGYHAMMVDIAVQLVQKWERLNADEHIEVPEDMTRLTLDTIGLCGFNYRFNSFYRDQPHPFITSMVRALDEAMNKLQRANPDDPAYDENKRQFQEDIKVMNDLVDKIIADRKASGEQSDDLLTHMLNGKDPETGEPLDDENIRYQIITFLIAGHETTSGLLSFALYFLVKNPHVLQKAAEEAARVLVDPVPSYKQVKQLKYVGMVLNEALRLWPTAPAFSLYAKEDTVLGGEYPLEKGDELMVLIPQLHRDKTIWGDDVEEFRPERFENPSAIPQHAFKPFGNGQRACIGQQFALHEATLVLGMMLKHFDFEDHTNYELDIKETLTLKPEGFVVKAKSKKIPLGGIPSPSTEQSAKKVRKKAENAHNTPLLVLYGSNMGTAEGTARDLADIAMSKGFAPQVATLDSHAGNLPREGAVLIVTASYNGHPPDNAKQFVDWLDQASADEVKGVRYSVFGCGDKNWATTYQKVPAFIDETLAAKGAENIADRGEADASDDFEGTYEEWREHMWSDVAAYFNLDIENSEDNKSTLSLQFVDSAADMPLAKMHGAFSTNVVASKELQQPGSARSTRHLEIELPKEASYQEGDHLGVIPRNYEGIVNRVTARFGLDASQQIRLEAEEEKLAHLPLAKTVSVEELLQYVELQDPVTRTQLRAMAAKTVCPPHKVELEALLEKQAYKEQVLAKRLTMLELLEKYPACEMKFSEFIALLPSIRPRYYSISSSPRVDEKQASITVSVVSGEAWSGYGEYKGIASNYLAELQEGDTITCFISTPQSEFTLPKDPETPLIMVGPGTGVAPFRGFVQARKQLKEQGQSLGEAHLYFGCRSPHEDYLYQEELENAQSEGIITLHTAFSRMPNQPKTYVQHVMEQDGKKLIELLDQGAHFYICGDGSQMAPAVEATLMKSYADVHQVSEADARLWLQQLEEKGRYAKDVWAG

Legend:
BM3 protein = BM3 protein (Priestia megaterium, UniProt P14779); assay: biochemical
Source text: In another example, a spectroscopic assay based on analyte-induced absorbance shifts was employed to estimate binding affinities and ligand selectivity of the mutant proteins in the above Examples. […] This method allowed both an estimation of an analyte's dissociation constant and a determination of selectivity.

[1] = T1 relaxivity / T1-weighted images in the presence of melatonin; format: biochemical; conditions: Example 3, FIGS. 8-9
[2] = T1 relaxivity by MRI in the presence of dopamine; conditions: Example 3, FIGS. 8-9
Source text: To determine the extent of that the interaction between exchanging water molecules at the axial site and the heme iron atom promotes T1 relaxation in aqueous solutions, a spin echo MRI pulse sequence was used to measure the proton relaxation rate as a function of protein concentration in phosphate buffered saline solution (PBS); the slope of this relationship (T1 relaxivity, or r1) provided a standard measure of the strength of a contrast agent.
Samples (60-100 microliters) were arrayed into microtiter plates and placed in a 40-cm-bore Bruker (Billerica, Mass.) Avance 4.7 T MRI scanner, equipped with a 10 cm inner diameter birdcage resonator radiofrequency coil and 26 G/cm triple axis gradients. Unused wells of the microtiter plates were filled with phosphate buffered saline, and imaging was performed on a 2-mm slice through the sample. A T1-weighted spin echo pulse sequence was used; echo time (TE) was 10 ms, and repetition times (TR) ranged from 77 ms to 5 s. Data matrices of 512×128 points were acquired and zero-filled to 1024×512 points, where the second dimension corresponds to the phase encoding direction. Images were reconstructed and analyzed using custom routines running in Matlab. Relaxation rates and relaxivities reported here were calculated by exponential fitting to the image data.

Procedure for PC12 cells: PC12 cells were grown in suspension in F-12K medium supplemented with 15% horse serum and 2.5% fetal bovine serum (ATCC, Manassas, Va.). In preparation for DA release experiments, 50 mL cell cultures were incubated for one hour in medium supplemented with 1 mM DA and 1 mM ascorbic acid, pelleted and washed twice with Locke's buffer (154 mM NaCl, 5.6 mM KCl, 3.6 mM NaHCO3, 2.3 mM CaCl2, 5.6 mM D-glucose, and 5 mM HEPES, pH 7.4). Washed PC12 cell pellets were resuspended in 200 microliters of Locke's buffer, with or without 32 micromolar BM3h-B7 sensor and containing either 5.6 or 59.6 mM K^+ (the low K^+ condition was osmotically balanced with Na^+). After 30-60 minutes incubation at room temperature, cells were pelleted and the supernatant was imaged in an MRI scanner as described above.

Molecule	Kd (BM3 protein)	DA concentration by ELISA, stimulated cells (PC12 cells; K+-stimulated PC12 cells)	DA concentration by ELISA, control cells (PC12 cells; Na+ control PC12 cells)	T1 relaxivity response to melatonin [1]	relative T1 relaxivity response to DA versus 5-HT [2]
NCCc1ccc(O)c(O)c1 [dopamine]	~1000 µM	54 ± 9 µM	13 ± 2 µM		
NCCc1c[nH]c2ccc(O)cc12 [serotonin]	~1000 µM				
B1				minimal response	greater response to DA
